Where “and” joins values, the source holds several entries; their conditions need not be identical. Equal entries are not always repeated. Inconclusive results and toxic doses are left out. Rule for the calls: active = survival T/C of 150% or more; inactive = T/C below 125% in these data.
System: P388 leukemia ip, CD2F1 mice, survival T/C
Experiment: NCI In Vivo Anticancer Drug Screen. Data for tumor model P388 Leukemia (intraperitoneal) in CD2F1 (CDF1) mice
Conditions: endpoint: median survival time, higher = longer survival
Summary of the method: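 Mice carrying the transplanted tumor received test compound or vehicle. Survival was recorded in each group, and the value is the treated-group measurement divided by that of the vehicle-treated control group.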

[1] = dose: 50.0 mg/kg/injection, schedule: Q01DX009 (ip), vehicle: saline with Tween-80
[2] = dose: 100.0 mg/kg/injection, schedule: Q01DX009 (ip), vehicle: saline with Tween-80
[3] = dose: 200.0 mg/kg/injection, schedule: Q01DX009 (ip), vehicle: saline with Tween-80
[4] = dose: 100.0 mg/kg/injection, schedule: Q01DX001 (ip), vehicle: saline with Tween-80
[5] = dose: 200.0 mg/kg/injection, schedule: Q01DX001 (ip), vehicle: saline with Tween-80
[6] = dose: 60.0 mg/kg/injection, schedule: Q01DX005 (ip), vehicle: saline
[7] = dose: 120.0 mg/kg/injection, schedule: Q01DX005 (ip), vehicle: saline
[8] = dose: 6.25 mg/kg/injection, schedule: Q01DX005 (ip), vehicle: Klucel (hydroxypropylcellulose) (HPC)
[9] = dose: 12.5 mg/kg/injection, schedule: Q01DX005 (ip), vehicle: Klucel (hydroxypropylcellulose) (HPC)
[10] = dose: 100.0 mg/kg/injection, schedule: Q01DX009 (ip), vehicle: Klucel (hydroxypropylcellulose) (HPC)
[11] = dose: 200.0 mg/kg/injection, schedule: Q01DX009 (ip), vehicle: Klucel (hydroxypropylcellulose) (HPC)
[12] = dose: 60.0 mg/kg/injection, schedule: Q01DX005 (ip), vehicle: Klucel (hydroxypropylcellulose) (HPC)
[13] = dose: 120.0 mg/kg/injection, schedule: Q01DX005 (ip), vehicle: Klucel (hydroxypropylcellulose) (HPC)
[14] = dose: 240.0 mg/kg/injection, schedule: Q01DX005 (ip), vehicle: Klucel (hydroxypropylcellulose) (HPC)
[15] = dose: 100.0 mg/kg/injection, schedule: Q04DX002 (ip), vehicle: saline
[16] = dose: 200.0 mg/kg/injection, schedule: Q04DX002 (ip), vehicle: saline
[17] = dose: 400.0 mg/kg/injection, schedule: Q04DX002 (ip), vehicle: saline
[18] = dose: 50.0 mg/kg/injection, schedule: Q01DX009 (ip), vehicle: Klucel (hydroxypropylcellulose) (HPC)
[19] = dose: 50.0 mg/kg/injection, schedule: Q01DX005 (ip), vehicle: Klucel (hydroxypropylcellulose) (HPC)
[20] = dose: 100.0 mg/kg/injection, schedule: Q01DX005 (ip), vehicle: Klucel (hydroxypropylcellulose) (HPC)
[21] = dose: 200.0 mg/kg/injection, schedule: Q01DX005 (ip), vehicle: Klucel (hydroxypropylcellulose) (HPC)
[22] = dose: 60.0 mg/kg/injection, schedule: Q01DX005 (ip), vehicle: saline with Tween-80
[23] = dose: 120.0 mg/kg/injection, schedule: Q01DX005 (ip), vehicle: saline with Tween-80

Measured: T/C

Cc1ccnn1C(C(=O)c1ccccc1)c1ccccc1 (centres undefined)
inactive: [1] 108 % of control | [2] 105 % of control | [3] 105 % of control

CCCCCn1c(CN2CCCCC2)nc2c1-c1ccccc1C(=O)C2=O
inactive: dose: 50.0 mg/kg/injection, schedule: Q01DX001 (ip), vehicle: saline with Tween-80 100 % of control | [4] 100 % of control | [5] 100 % of control

CONC(C)=O
inactive: [6] 98 % of control | [7] 100 % of control | dose: 240.0 mg/kg/injection, schedule: Q01DX005 (ip), vehicle: saline 100 % of control

CCCCCCCC#CC(=O)OC
inactive: [1] 95 % of control | [2] 101 % of control | [3] 101 % of control

CN=C(NC)c1ccc(NC(=O)c2cc(C(=O)Nc3ccc(C(=NC)NC)cc3)cc([N+](=O)[O-])c2)cc1
inactive: [8] 107 % of control | [9] 119 % of control

O=S1(=O)NC(=NC2CCCC2)c2ccccc21
inactive: dose: 50.0 mg/kg/injection, schedule: Q01DX005 (ip), vehicle: saline with Tween-80 111 % of control | dose: 100.0 mg/kg/injection, schedule: Q01DX005 (ip), vehicle: saline with Tween-80 102 % of control | dose: 200.0 mg/kg/injection, schedule: Q01DX005 (ip), vehicle: saline with Tween-80 101 % of control

Cc1ccc(S(=O)(=O)OC[C@@H]2CCCC[C@H]2COS(=O)(=O)c2ccc(C)cc2)cc1
inactive: [10] 98 % of control | [11] 98 % of control | dose: 400.0 mg/kg/injection, schedule: Q01DX009 (ip), vehicle: Klucel (hydroxypropylcellulose) (HPC) 98 % of control

COc1cc(CC(=O)O)c([N+](=O)[O-])cc1C
inactive: dose: 25.0 mg/kg/injection, schedule: Q01DX001 (ip), vehicle: Klucel (hydroxypropylcellulose) (HPC) 90 % of control | dose: 50.0 mg/kg/injection, schedule: Q01DX001 (ip), vehicle: Klucel (hydroxypropylcellulose) (HPC) 91 % of control | dose: 100.0 mg/kg/injection, schedule: Q01DX001 (ip), vehicle: Klucel (hydroxypropylcellulose) (HPC) 91 % of control

COC(=O)c1nn(-c2ccccc2)c(C(=O)OC)c1C(=O)OC
inactive: [4] 111 % of control | [5] 112 % of control | dose: 400.0 mg/kg/injection, schedule: Q01DX001 (ip), vehicle: saline with Tween-80 98 % of control

C1CCc2[nH]nc(-c3n[nH]c4c3CCCCC4)c2CC1
inactive: [12] 100 % of control | [13] 94 % of control | [14] 96 % of control

Cc1ccc(S(=O)(=O)N=P(c2ccccc2)(c2ccccc2)c2ccccc2)cc1
inactive: [2] 91 % of control | [3] 95 % of control

CC(C)=NN/C=N/S(C)(=O)=O
inactive: [15] 105 % of control | [16] 104 % of control | [17] 104 % of control

CCCCCCCCCCCCCCCCOC(=O)c1ccc(O)cc1
inactive: [18] 95 % of control | [10] 92 % of control | [11] 103 % of control

COC(=O)c1c[nH]c(=S)n1C
inactive: [15] 98 % of control | [16] 100 % of control | [17] 105 % of control

COC1(OC)C(c2cccs2)C(C#N)(C#N)C1(OC)OC (centres undefined)
inactive: [12] 100 % of control | [13] 105 % of control | [14] 100 % of control

CCC(=O)Nc1ccc(C(=O)NCCN(CC)CC)cc1
inactive: [19] 105 % of control | [20] 104 % of control | [21] 100 % of control

C=C1C(=O)O[C@H]2[C@H]1C[C@@H](O)[C@@]1(C)[C@@H](OC(=O)/C(C)=C/C)C[C@@H]3O[C@]3(C)[C@H]21
inactive: dose: 9.0 mg/kg/injection, schedule: Q01DX005 (ip), vehicle: Klucel + Tween-80 105 % of control | dose: 18.0 mg/kg/injection, schedule: Q01DX005 (ip), vehicle: Klucel + Tween-80 106 % of control | dose: 36.0 mg/kg/injection, schedule: Q01DX005 (ip), vehicle: Klucel + Tween-80 105 % of control | dose: 72.0 mg/kg/injection, schedule: Q01DX005 (ip), vehicle: Klucel + Tween-80 110 % of control

Nc1c(C(=O)O)c(Br)cc2c1C(=O)c1ccccc1C2=O
inactive: [19] 99 % of control | [20] 99 % of control | [21] 107 % of control

O=c1oc2ccccc2cc1-n1nnc2cc([N+](=O)[O-])ccc21
inactive: [22] 91 % of control | [23] 89 % of control | dose: 240.0 mg/kg/injection, schedule: Q01DX005 (ip), vehicle: saline with Tween-80 99 % of control

CCC(CC)(COS(C)(=O)=O)COS(C)(=O)=O
inactive: [1] 104 % of control | [2] 101 % of control | [3] 90 % of control | dose: 400.0 mg/kg/injection, schedule: Q01DX009 (ip), vehicle: saline with Tween-80 89 % of control

CCCCCc1nc(N)nc(-c2nc(N)nc(CCCCC)c2C)c1C
inactive: [6] 96 % of control | [7] 100 % of control

C=CCCN=C(SC)SC
inactive: [22] 104 % of control | [23] 114 % of control

Cc1nn(C(=O)c2ccncc2)c(C)c1N=Nc1cccc2ccccc12
inactive: [18] 96 % of control | [10] 99 % of control | [11] 96 % of control

O=c1oc(-c2cccc([N+](=O)[O-])c2)ns1
inactive: dose: 6.25 mg/kg/injection, schedule: Q01DX009 (ip), vehicle: Klucel (hydroxypropylcellulose) (HPC) 101 % of control | dose: 12.5 mg/kg/injection, schedule: Q01DX009 (ip), vehicle: Klucel (hydroxypropylcellulose) (HPC) 97 % of control | dose: 25.0 mg/kg/injection, schedule: Q01DX009 (ip), vehicle: Klucel (hydroxypropylcellulose) (HPC) 109 % of control

O=S(=O)(O)O.[Co+3].[Co+3].[NH2-].[NH2-].[NH2-].[NH2-].[NH2-].[NH2-].[NH2-].[NH2-].[NH2-].[NH2-].[O-][O-]
inactive: dose: 25.0 mg/kg/injection, schedule: Q01DX009 (ip), vehicle: saline 96 % of control

CCOC(=O)c1ccc(NC(=NC)c2ccccc2)cc1
inactive: [1] 108 % of control | [2] 105 % of control | [3] 97 % of control

CCC(C)C(NC(=O)C(F)(F)F)C(=O)O (centres undefined)
inactive: [1] 98 % of control | [2] 98 % of control | [3] 103 % of control

CCC[CH2][Sn]1([CH2]CCC)[O]c2ccccc2[O]1
inactive: dose: 0.39 mg/kg/injection, schedule: Q01DX005 (ip), vehicle: saline with Tween-80 103 % of control | dose: 0.78 mg/kg/injection, schedule: Q01DX005 (ip), vehicle: saline with Tween-80 106 % of control | dose: 1.56 mg/kg/injection, schedule: Q01DX005 (ip), vehicle: saline with Tween-80 109 % of control and 124 % of control | dose: 3.12 mg/kg/injection, schedule: Q01DX005 (ip), vehicle: Klucel (hydroxypropylcellulose) (HPC) 100 % of control | dose: 3.12 mg/kg/injection, schedule: Q01DX005 (ip), vehicle: saline with Tween-80 123 % of control | [8] 105 % of control | [9] 107 % of control

Reference: PubChem BioAssay AID330 (DTP/NCI, 2004)
